Reference: patent US4206215A, “Antimicrobial bis-[4-(substituted-amino)-1-pyridinium]alkanes” (Sterling Drug Inc., priority 1977, dated 1980)
Read-outs that look alike come from different tables or passages of the source.

How the values were obtained:
S. Aureus Smith = assay: In vitro antibacterial activity, MIC (modified Autotiter method); type: cell-based, Staphylococcus aureus; conditions: 18-20 hours at 37° C.; for MIC: Staphylococcus aureus, 20 h, read-out: MIC S. Aureus Smith
Summary of the method: (§1)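 Final drug range: 500 → 0.06 mcg./ml., twofold decrements, in inoculated semisynthetic glucose medium. Dilution performed by Autotiter transfer loops in sterile water from a 1,000 mcg./ml. compound solution.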

E. coli 100/B22 = assay: as above; type: cell-based, Escherichia coli; conditions: for MIC: Escherichia coli, 100/B22, 20 h, read-out: MIC E. coli 100/B22, 18-20 hours at 37° C.
Summary of the method: as §1

E. coli AB1932-1 = assay: as above; type: cell-based, Escherichia coli; conditions: 18-20 hours at 37° C.; for MIC: Escherichia coli, AB19321, 20 h, read-out: MIC E. coli AB1932-1
Summary of the method: as §1

E. coli Vogel = assay: as above; type: cell-based, Escherichia coli; conditions: 18-20 hours at 37° C.; for MIC: Escherichia coli, 20 h, read-out: MIC E. coli Vogel
Summary of the method: as §1

K. pneum. 39645 = assay: as above; type: cell-based, Klebsiella pneumoniae; conditions: 18-20 hours at 37° C.; for MIC: Klebsiella pneumoniae, 20 h, read-out: MIC K. pneum. 39645
Summary of the method: as §1

P. mirab. MGH-1 = assay: as above; type: cell-based, Proteus mirabilis; conditions: 18-20 hours at 37° C.; for MIC: Proteus mirabilis, 20 h, read-out: MIC P. mirab. MGH-1
Summary of the method: as §1

Ps. aerug. MGH-2 = assay: as above; type: cell-based, Pseudomonas aeruginosa; conditions: 18-20 hours at 37° C.; for MIC: Pseudomonas aeruginosa, 20 h, read-out: MIC Ps. aerug. MGH-2
Summary of the method: as §1

S. pyogen. C203 = assay: as above; type: cell-based, Streptococcus pyogenes; conditions: 18-20 hours at 37° C.; for MIC: Streptococcus pyogenes, 20 h, read-out: MIC S. pyogen. C203
Summary of the method: as §1

A. niger 16404 = assay: In vitro antifungal activity, MIC (modified Autotiter method); type: cell-based, Aspergillus niger; conditions: 18-20 hours at 37° C.; for MIC: Aspergillus niger, 16404, 20 h, read-out: MIC A. niger 16404
Summary of the method: as §1

C. albicans 10231 = assay: as above; type: cell-based, Candida albicans; conditions: 18-20 hours at 37° C.; for MIC: Candida albicans, 10231, 20 h, read-out: MIC C. albicans 10231
Summary of the method: as §1

C. albicans Wisc. = assay: as above; type: cell-based, Candida albicans; conditions: 18-20 hours at 37° C.; for MIC: Candida albicans, 20 h, read-out: MIC C. albicans Wisc.
Summary of the method: as §1

T. menta. 9129 = assay: as above; type: cell-based, Trichophyton mentagrophytes; conditions: 18-20 hours at 37° C.; for MIC: Trichophyton mentagrophytes, 20 h, read-out: MIC T. menta. 9129
Summary of the method: as §1

S. Aureus ATCC 6538 = assay: Effect of serum on bacteriostatic activity (serial tube dilution test); type: cell-based, Staphyloccocus aureus; conditions: for Fold Increase in MIC S. Aureus ATCC 6538: 40% vs 0% horse serum; for MIC: Staphylococcus aureus, ATCC6538
Method: (§2) Antibacterial effectiveness in the presence of serum was determined for representative examples by the standard serial tube dilution test wherein paired comparisons of minimum inhibitory concentrations (MIC) were determined in the absence and in the presence of heat inactivated (30 min. at 56° C.) horse serum (40%) in the test medium. The results are expressed as the fold increase in MIC (mcg./ml.) versus Staphyloccocus aureus and Escherichia coli caused by the presence of serum and are presented in Table B hereinbelow.

E. Coli ATCC 8739 = assay: as above; type: cell-based, Escherichia coli; conditions: for Fold Increase in MIC E. Coli ATCC 8739: 40% vs 0% horse serum; for MIC: Escherichia coli, ATCC8739
Method: as §2

[1] = Acute oral toxicity (ALD50); type: in vivo; conditions: mouse, in vivo, po, mice, read-out: 7-Day ALD50
Method: (§3) The acute oral toxicity (ALD50) of several representative examples was determined as follows: Groups of 3 young adult male Swiss-Webster strain albino mice were fasted approximately 4 hours before medication and then medicated once orally by stomach tube.

[2] = system: young adult male Swiss-Webster strain albino mice; assay: Acute oral toxicity (ALD50); type: in vivo
Method: as §3

[3] = 40% heat inactivated horse serum, read-out: MIC S. Aureus ATCC 6538 40% Serum
[4] = read-out: MIC S. Aureus ATCC 6538 0% Serum
[5] = 40% heat inactivated horse serum, read-out: MIC E. Coli ATCC 8739 40% Serum
[6] = read-out: MIC E. Coli ATCC 8739 0% Serum
[7] = suspension in 1% gum tragacanth
[8] = 125 mg/kg oral, suspension in 1% G.T.
[9] = 250 mg/kg oral, suspension in 1% G.T.
[10] = 500 mg/kg oral, suspension in 1% G.T.
[11] = 1000 mg/kg oral, suspension in 1% G.T.
[12] = 125 mg/kg oral, aqueous solution
[13] = 250 mg/kg oral, aqueous solution
[14] = 500 mg/kg oral, aqueous solution
[15] = 1000 mg/kg oral, aqueous solution

CCCCCCCNc1cc[n+](CCCCCCCCCC[n+]2ccc(NCCCCCCC)cc2)cc1 [Example 26, 1,10-bis-[4-(heptylamino)-1-pyridinium]decane dibromide]
MIC (S. Aureus Smith): 0.37 µg/mL
MIC (E. coli 100/B22): 0.75 µg/mL
MIC (E. coli AB1932-1): 0.75 µg/mL
MIC (E. coli Vogel): 0.75 µg/mL
MIC (K. pneum. 39645): 1.49 µg/mL
MIC (P. mirab. MGH-1): 6 µg/mL
MIC (Ps. aerug. MGH-2): 11.9 µg/mL
MIC S. pyogen. C203 (S. pyogen. C203): 1.95 µg/mL
MIC (A. niger 16404): 2.98 µg/mL
MIC C. albicans 10231 (C. albicans 10231): 0.75 µg/mL
MIC (C. albicans Wisc.): 1.49 µg/mL
MIC (T. menta. 9129): 0.75 µg/mL
Fold Increase in MIC S. Aureus ATCC 6538 (S. Aureus ATCC 6538): 16 fold
MIC (S. Aureus ATCC 6538; [3]): 1.95 µg/mL
MIC (S. Aureus ATCC 6538; [4]): 0.125 µg/mL
Fold Increase in MIC E. Coli ATCC 8739 (E. Coli ATCC 8739): 16 fold
MIC (E. Coli ATCC 8739; [5]): 7.8 µg/mL
MIC (E. Coli ATCC 8739; [6]): 0.5 µg/mL
LD50 at 168 h [1, 7]: > 1000 mg/kg
Mortality 7 Days [2, 8]: 0/3
Mortality 24 Hrs [2, 8]: 0/3
Mortality 7 Days [2, 9]: 0/3
Mortality 24 Hrs [2, 9]: 0/3
Mortality 7 Days [2, 10]: 0/3
Mortality 24 Hrs [2, 10]: 0/3
Mortality 7 Days [2, 11]: 0/3
Mortality 24 Hrs [2, 11]: 0/3

CCCCCCCCCNc1cc[n+](CCCCCCCC[n+]2ccc(NCCCCCCCCC)cc2)cc1 [Example 29C, 1,8-bis-[4-(nonylamino)-1-pyridinium]octane dibromide]
MIC (S. Aureus Smith): 1 µg/mL
MIC (E. coli 100/B22): 1.95 µg/mL
MIC (E. coli AB1932-1): 1.95 µg/mL
MIC (E. coli Vogel): 3.9 µg/mL
MIC (K. pneum. 39645): 1.95 µg/mL
MIC (P. mirab. MGH-1): 3.9 µg/mL
MIC (Ps. aerug. MGH-2): 7.8 µg/mL
MIC (S. pyogen. C203): 1.95 µg/mL
MIC (A. niger 16404): 7.8 µg/mL
MIC (C. albicans 10231): 3.9 µg/mL
MIC (C. albicans Wisc.): 3.9 µg/mL
MIC (T. menta. 9129): 1.95 µg/mL
Fold Increase in MIC S. Aureus ATCC 6538 (S. Aureus ATCC 6538): 16 fold
MIC (S. Aureus ATCC 6538; [3]): 7.8 µg/mL
MIC (S. Aureus ATCC 6538; [4]): 0.5 µg/mL
Fold Increase in MIC E. Coli ATCC 8739 (E. Coli ATCC 8739): 16 fold
MIC (E. Coli ATCC 8739; [5]): 62.5 µg/mL
MIC (E. Coli ATCC 8739; [6]): 3.9 µg/mL
LD50 at 168 h [1, 7]: > 1000 mg/kg
Mortality 7 Days [2, 8]: 0/3
Mortality 24 Hrs [2, 8]: 0/3
Mortality 7 Days [2, 9]: 0/3
Mortality 24 Hrs [2, 9]: 0/3
Mortality 7 Days [2, 10]: 0/3
Mortality 24 Hrs [2, 10]: 0/3
Mortality 7 Days [2, 11]: 0/3
Mortality 24 Hrs [2, 11]: 0/3

CCCCC(CC)CNc1cc[n+](CCCCCCCCCCCC[n+]2ccc(NCC(CC)CCCC)cc2)cc1 (stereo not drawn) [Example 41C, 1,12-bis-[4-(2-ethylhexylamino)-1-pyridinium]dodecane dibromide]
MIC (S. Aureus Smith): 0.5 µg/mL
MIC (E. coli 100/B22): 1 µg/mL
MIC (E. coli AB1932-1): 1 µg/mL
MIC (E. coli Vogel): 1 µg/mL
MIC (K. pneum. 39645): 1.95 µg/mL
MIC (P. mirab. MGH-1): 3.9 µg/mL
MIC (Ps. aerug. MGH-2): 3.9 µg/mL
MIC (S. pyogen. C203): 0.5 µg/mL
MIC (A. niger 16404): 3.9 µg/mL
MIC (C. albicans 10231): 1 µg/mL
MIC (C. albicans Wisc.): 1 µg/mL
MIC (T. menta. 9129): 1 µg/mL
Fold Increase in MIC S. Aureus ATCC 6538 (S. Aureus ATCC 6538): 32 fold
MIC (S. Aureus ATCC 6538; [3]): 7.8 µg/mL
MIC (S. Aureus ATCC 6538; [4]): 0.25 µg/mL
Fold Increase in MIC E. Coli ATCC 8739 (E. Coli ATCC 8739): 64 fold
MIC (E. Coli ATCC 8739; [5]): 62.5 µg/mL
MIC (E. Coli ATCC 8739; [6]): 1 µg/mL
LD50 at 168 h [1, 7]: > 1000 mg/kg
Mortality 7 Days [2, 8]: 0/3
Mortality 24 Hrs [2, 8]: 0/3
Mortality 7 Days [2, 9]: 0/3
Mortality 24 Hrs [2, 9]: 0/3
Mortality 7 Days [2, 10]: 0/3
Mortality 24 Hrs [2, 10]: 0/3
Mortality 7 Days [2, 11]: 0/3
Mortality 24 Hrs [2, 11]: 0/3

CCCCC(CC)CNc1cc[n+](CCCCCCCCCC[n+]2ccc(NCC(CC)CCCC)cc2)cc1 (stereo not drawn) [Example 59, 1,10-Bis-[4-(2-ethylhexylamino)-1-pyridinium]-decane dichloride]
MIC S. Aureus Smith (S. Aureus Smith): 0.25 µg/mL
MIC E. coli 100/B22 (E. coli 100/B22; 18-20 hours at 37° C.): 0.5 µg/mL
MIC E. coli AB1932-1 (E. coli AB1932-1): 1.0 µg/mL
MIC E. coli Vogel (E. coli Vogel): 1.0 µg/mL
MIC K. pneum. 39645 (K. pneum. 39645): 1.95 µg/mL
MIC P. mirab. MGH-1 (P. mirab. MGH-1): 7.8 µg/mL
MIC Ps. aerug. MGH-2 (Ps. aerug. MGH-2): 31.3 µg/mL
MIC S. pyogen. C203 (S. pyogen. C203): 1.0 µg/mL
MIC A. niger 16404 (A. niger 16404): 15.6 µg/mL
MIC C. albicans 10231 (C. albicans 10231): 1.95 µg/mL
MIC C. albicans Wisc. (C. albicans Wisc.): 1.95 µg/mL
MIC T. menta. 9129 (T. menta. 9129): 1.0 µg/mL
LD50 at 168 h ([1]; aqueous solution): 750 mg/kg
Mortality 7 Days [2, 12]: 0/3
Mortality 24 Hrs [2, 12]: 0/3
Mortality 7 Days [2, 13]: 0/3
Mortality 24 Hrs [2, 13]: 0/3
Mortality 7 Days [2, 14]: 2/3
Mortality 24 Hrs [2, 14]: 1/3
Mortality 7 Days [2, 15]: 1/3
Mortality 24 Hrs [2, 15]: 1/3
